Assay results taken from US20030040531A1, “Remedies for reperfusion injury containing integrin alphanubeta 3 antagonist” (priority 2000, published 2003).
pIC50: −log10 of the molar value. Where two headings read alike, the source gives them in different places.

Legend:
[1] = target: integrin αvβ3 (Homo sapiens, UniProt P05106+P06756); test: integrin αvβ3 binding assay (Pharmacological Example 1 in WO 99/38849)
Source text: Whether or not a compound has integrin αvβ3 antagonistic activity may be determined by assaying the antagonistic action by integrin αvβ3 binding assay as described, for example, in Pharmacological Test Example 1 in WO 99/38849.

[2] = tested on: human vascular smooth muscle cells; test: adhesion of human vascular smooth muscle cells to immobilized human vitronectin; type: cell-based; details: read-out: concentration (IC50) necessary for inhibition of adhesion to vitronectin
Protocol: (§1) The adhesion of vascular smooth muscle cells to immobilized human vitronectin was measured in accordance with the method of Liaw et al. (L. Liaw et al., Circ. Res., 74, 214 (1994)). A Dulbecco's phosphate buffer (Dulbecco's PBS(−)) solution of human serum-derived vitronectin adjusted to a concentration of 4 μg/ml was first added to wells (50 μl/well) of a microplate (Maxisorp), and a reaction for immobilization was allowed to proceed at 4° C. overnight. After washing twice with 150 μl of Dulbecco's PBS (−), Dulbecco's PBS (−) containing 10 mg/ml of bovine serum albumin was added, followed by blocking at 37° C. for one hr. The microplate was then washed twice with 150 μl of Dulbecco's PBS (−) to prepare an assay plate.
Separately, human vascular smooth muscle cells cultivated at 37° C. under 5% carbon dioxide in a medium for vascular smooth muscle cells were separated using a Dulbecco's PBS (−) containing trypsin-EDTA, were washed with Dulbecco's PBS (−), and were then suspended in a Dulbecco's modified Eagle's basal medium to a concentration of 2×10^5/ml.
(§2) Next, 50 μl of a Dulbecco's modified Eagle's basal medium containing 20 mg/ml of bovine serum albumin with a medicament added thereto was added to the wells of the human vitronectin-coated assay microplate, followed by pre-cultivation under 5% carbon dioxide at 37° C. for 10 min. Thereafter, 50 μl of the Dulbecco's modified Eagle's basal medium with human vascular smooth muscle cells suspended therein was added thereto, and the plate was thoroughly stirred. A reaction was allowed to proceed under 5% carbon dioxide at 37° C. for 90 min. The reaction solution containing non-adherent cells was then removed, followed by washing three times with Dulbecco's PBS (−). For the adhered cells, 100 μl of Dulbecco's PBS (−) containing 4% paraformaldehyde was added, and immobilization was allowed to proceed at room temperature for 10 min. Next, 100 μl of a Dulbecco's PBS (−) containing 0.5% Toluidine Blue and 4% paraformaldehyde was added, and staining was allowed to proceed at room temperature for 5 min, followed by thorough washing with distilled water. The inside of the wells was then air-dried, and 1% aqueous sodium dodecylsulfate solution was then added to perform cytolysis. The absorbance of the microplate thus obtained was measured at 595 nm. […] The inhibition was calculated by the following equation. IC50 was determined from a primary regression line of the logarithm of each concentration of the test compound and the logarithm of (100−inhibition)/inhibition. [formula]

[3] = tested on: rat vascular smooth muscle cells; test: adhesion of rat vascular smooth muscle cells to rat vitronectin; type: cell-based; details: read-out: concentration (IC50) necessary for inhibition of adhesion to vitronectin
Protocol: as §1, §2
(§3) Rat vascular smooth muscle cells were cultivated in a medium composed of a mixture of equal amounts of 15% fetal calf serum-containing 199 medium and RPMI 1640 medium. Separately, hamster and dog vascular smooth muscle cells were cultivated in a 10% fetal calf serum-containing Dulbecco's modified Eagle's basal medium. These cultivated cells were then suspended in a Dulbecco's modified Eagle's basal medium to concentrations of 3×10^5 cells/ml (rat), 3×10^5 cells/ml (hamster), and 4×10^5 cells /ml (dog), respectively. Rat vitronectin was used in the adhesion system of rats and hamsters, while bovine vitronectin was used in the adhesion system of dogs.

[4] = tested on: hamster vascular smooth muscle cells; test: adhesion of hamster vascular smooth muscle cells to rat vitronectin; type: cell-based; details: Mesocricetus auratus, read-out: concentration (IC50) necessary for inhibition of adhesion to vitronectin
Protocol: as §1
Next, 50 μl of a Dulbecco's modified Eagle's basal medium containing 20 mg/ml of bovine serum albumin with a medicament added thereto was added to the wells of the human vitronectin-coated assay microplate, followed by pre-cultivation under 5% carbon dioxide at 37° C. for 10 min. […] The absorbance of the microplate thus obtained was measured at 595 nm. […] The inhibition was calculated by the following equation. IC50 was determined from a primary regression line of the logarithm of each concentration of the test compound and the logarithm of (100−inhibition)/inhibition. […]

[5] = tested on: dog vascular smooth muscle cells; test: adhesion of dog vascular smooth muscle cells to bovine vitronectin; type: cell-based; details: Canis lupus familiaris, read-out: concentration (IC50) necessary for inhibition of adhesion to vitronectin
Protocol: as §1, §2, §3

[6] = tested on: platelet aggregation; test: inhibition of platelet aggregation, human; type: cell-based; details: read-out: concentration (IC50) necessary for inhibition of platelet aggregation
[7] = tested on: platelet aggregation; test: inhibition of platelet aggregation, rat; type: cell-based; details: read-out: concentration (IC50) necessary for inhibition of platelet aggregation
[8] = tested on: platelet aggregation; test: inhibition of platelet aggregation, dog; type: cell-based; details: Canis lupus familiaris, read-out: concentration (IC50) necessary for inhibition of platelet aggregation
[9] = tested on: rat acute myocardial ischemia-reperfusion model; test: rat acute myocardial ischemia-reperfusion model; type: in vivo; details: for myocardial infarct size (proportion of the infarct area in the left ventricle): average value±SE, n=5
Protocol: Male Wistar rats (330 to 420 g) were subjected to controlled respiration using an artificial respirator under pentobarbital anesthesia (60 mg/kg, i.p.), and the blood pressure and the heart rate were measured through a blood pressure amplifier and a heart rate unit. Further, for the ischemia of the myocardium, an increase in voltage of R-wave in the II leading in an electrocardiogram was confirmed with a monitor through a bioelectricity amplifier. The rats underwent thoracotomy, and the coronary artery, together with the myocardium, was then occluded using a suture with a needle. Ischemia for 3 min and reperfusion for 5 min were followed by ischemia for 45 min and reperfusion for 45 min. Medicaments tested and concentrations thereof were 3 mg/kg+3 mg/kg/hr (bolus +infusion) (L; low dose group) and 6 mg/kg+3 mg/kg/hr (bolus +infusion) (H; high dose group) for the compound represented by formula (V); 3 mg/kg+3 mg/kg/hr (bolus +infusion) for the compound represented by formula (VI); 3 mg/kg+3 mg/kg/hr (bolus +infusion) (L; low dose group) and 6 mg/kg+3 mg/kg/hr (bolus +infusion) (H; high dose group) for the compound represented by formula (IV); 5 mg/kg+5 mg/kg/hr(bolus +infusion)(L; low dose group) and 10 mg/kg+10 mg/kg/hr (bolus +infusion) (H; high dose group) for the compound represented by formula (VII); and 1 mg/kg+1 mg/kg/hr (bolus+infusion) (L; low dose group) and 6 mg/kg+6 mg/kg/hr (bolus+infusion) (H; high dose group) for the compound represented by formula (VIII). For a control group (group C), a 10% (v/v) dimethyl sulfoxide/5% glucose solution was administered, and each medicament was dissolved in the same solvent. The dose volume was 3 ml/kg+3 ml/kg/h (bolus+infusion). The medicament was continuously administered through an infusion pump for the period starting with one min before the ischemia and ending with the completion of the experiment. After reperfusion for 45 min, the rats were slaughtered by excessive administration of pentobarbital, and the heart was removed. After perfusion with a Ringer solution, perfusion staining was carried out with 1.5% triphenyltetrazolium chloride, and the proportion of the infarct area in the left ventricle was quantitatively determined. For animals used in the experiment, each group consisted of 5 rats.

[10] = tested on: rat peritoneal cavity macrophage
Protocol: A Dulbecco's phosphate buffer (PBS (−)) solution of rat serum-derived vitronectin adjusted to a concentration of 5 μg/ml was first added to wells (50 μl/well) of a microplate (Maxisorp), and a reaction for immobilization was allowed to proceed at 4° C. overnight. After washing twice with 150 μl of PBS (−), PBS (−) containing 10 mg/ml of bovine serum albumin was added, followed by blocking at 37° C. for one hr. The microplate was then washed twice with 150 μl of PBS (−) to prepare an assay plate.
Rat peritoneal cavity macrophage was collected after the induction of thioglycolate into the peritoneal cavity. Specifically, a 3% thioglycolate medium was intraperitoneally administered into Wistar male rats (300 to 400 g) at a dose of 100 ml/kg, and, four days after the administration, intraperitoneal fluid and cold PBS (−) (100 ml/kg) injected into the peritoneal cavity were withdrawn to collect macrophage. The macrophage was isolated by removing nonadherent cells. Specifically, the cells collected from the peritoneal cavity were washed twice with PBS (−) and were then cultivated in a Dulbecco's modified Eagle's basal medium containing 0.1% bovine serum albumin under 5% carbon dioxide for 30 min to perform adhesion of macrophage. Next, nonadherent cells were removed, followed by washing with PBS (−). Thereafter, macrophage was collected with a cell scraper. The collected rat macrophage was washed twice with PBS (−) and was then suspended in a Dulbecco's modified Eagle's basal medium to a concentration of 8×10^5/ml. Next, 50 μl of a Dulbecco's modified Eagle's basal medium containing 0.2% bovine serum albumin with a medicament added thereto was added to the wells of the vitronectin-coated assay microplate, followed by pre-cultivation under 5% carbon dioxide at 37° C. for 10 min. Thereafter, 50 μl of the Dulbecco's modified Eagle's basal medium with macrophage suspended therein was added thereto, and the plate was thoroughly stirred. A reaction was allowed to proceed under 5% carbon dioxide at 37° C. for 10 min. […] The absorbance of the microplate thus obtained was measured at 595 nm.

[11] = 3 mg/kg+3 mg/kg/hr (bolus+infusion)
[12] = 6 mg/kg+3 mg/kg/hr (bolus+infusion), group H

Chain of integrin αvβ3 (P06756 31-1048): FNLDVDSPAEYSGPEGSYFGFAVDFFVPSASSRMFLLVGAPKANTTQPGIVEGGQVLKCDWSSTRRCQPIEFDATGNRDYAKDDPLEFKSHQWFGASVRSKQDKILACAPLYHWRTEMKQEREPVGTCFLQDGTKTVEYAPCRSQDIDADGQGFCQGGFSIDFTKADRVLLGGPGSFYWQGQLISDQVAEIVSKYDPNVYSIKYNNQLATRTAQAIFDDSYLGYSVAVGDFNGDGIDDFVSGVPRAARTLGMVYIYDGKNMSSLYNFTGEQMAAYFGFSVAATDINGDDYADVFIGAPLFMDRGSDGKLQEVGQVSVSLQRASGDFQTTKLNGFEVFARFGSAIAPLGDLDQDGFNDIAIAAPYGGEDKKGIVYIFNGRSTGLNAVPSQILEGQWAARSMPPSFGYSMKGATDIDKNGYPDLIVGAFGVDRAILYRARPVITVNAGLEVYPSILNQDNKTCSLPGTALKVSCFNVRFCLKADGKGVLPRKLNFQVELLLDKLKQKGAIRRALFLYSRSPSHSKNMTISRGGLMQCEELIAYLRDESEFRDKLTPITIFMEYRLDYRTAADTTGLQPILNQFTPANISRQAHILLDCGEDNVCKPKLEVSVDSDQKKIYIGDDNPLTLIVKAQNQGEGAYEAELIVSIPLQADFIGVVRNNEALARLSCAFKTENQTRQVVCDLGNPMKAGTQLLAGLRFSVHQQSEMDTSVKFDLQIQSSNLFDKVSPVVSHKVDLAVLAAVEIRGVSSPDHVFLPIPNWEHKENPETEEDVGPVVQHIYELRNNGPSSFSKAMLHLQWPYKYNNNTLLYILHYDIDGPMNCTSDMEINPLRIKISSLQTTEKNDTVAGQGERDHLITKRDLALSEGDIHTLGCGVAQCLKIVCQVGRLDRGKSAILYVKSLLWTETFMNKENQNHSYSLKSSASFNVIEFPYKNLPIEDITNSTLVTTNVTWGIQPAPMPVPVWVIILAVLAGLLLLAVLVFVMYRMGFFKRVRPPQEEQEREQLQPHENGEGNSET
Chain of integrin αvβ3 (P05106 27-788): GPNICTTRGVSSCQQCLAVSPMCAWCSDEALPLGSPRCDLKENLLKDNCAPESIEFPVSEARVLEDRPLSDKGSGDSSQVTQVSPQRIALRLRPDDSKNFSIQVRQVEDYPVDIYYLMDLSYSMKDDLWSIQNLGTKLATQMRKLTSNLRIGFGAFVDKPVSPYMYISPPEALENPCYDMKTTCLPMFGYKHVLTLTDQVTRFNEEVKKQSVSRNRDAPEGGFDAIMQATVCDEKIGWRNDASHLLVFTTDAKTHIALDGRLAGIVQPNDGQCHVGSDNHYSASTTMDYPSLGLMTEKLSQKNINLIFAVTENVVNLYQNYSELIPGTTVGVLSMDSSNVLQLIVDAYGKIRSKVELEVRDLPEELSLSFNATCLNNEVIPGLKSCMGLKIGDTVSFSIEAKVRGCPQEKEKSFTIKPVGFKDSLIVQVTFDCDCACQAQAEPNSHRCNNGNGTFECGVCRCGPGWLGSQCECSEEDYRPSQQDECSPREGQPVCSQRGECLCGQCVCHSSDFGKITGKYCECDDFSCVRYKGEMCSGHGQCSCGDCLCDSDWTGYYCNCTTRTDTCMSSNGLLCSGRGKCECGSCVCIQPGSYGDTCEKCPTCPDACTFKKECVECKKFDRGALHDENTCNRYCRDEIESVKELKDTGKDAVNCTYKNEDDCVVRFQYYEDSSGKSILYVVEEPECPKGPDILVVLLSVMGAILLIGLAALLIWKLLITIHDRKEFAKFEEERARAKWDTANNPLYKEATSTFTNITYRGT

SMILES: O=C(NCC(NS(=O)(=O)c1ccccc1)C(=O)O)c1ccc(N2CCC(NC3=NCCCN3)CC2)c(F)c1 (stereo in doubt) [formula (IV), (2S)-Benzenesulfonylamino-3-[3-fluoro-4-{4-(1,4,5,6-tetrahydropyrimidin-2-ylamino)-piperidin-1-yl}benzoylamino]propionic Acid]
- pIC50 [1]: 9.70
- pIC50 [2]: 7.43
- pIC50 [3]: 6.64
- pIC50 [4]: 6.14
- pIC50 [5]: 7.59
- pIC50 [6]: 7.26
- pIC50 [7]: < 4.00
- pIC50 [8]: 7.35
- reduction of myocardial infarct size as compared with group C [9, 11]: 17.8%
- myocardial infarct size (proportion of the infarct area in the left ventricle) [9, 11]: 32.3±4.9%
- reduction of myocardial infarct size as compared with group C [9, 12]: 35.1%
- myocardial infarct size (proportion of the infarct area in the left ventricle) [9, 12]: 25.5±1.5%
- influence on the blood pressure and the heart rate ([9]; doses at which the infarct inhibition action could be obtained): no influence
- fluorescence intensity (adhered rat macrophage) ([10]; 0.1 µM): 0.086±0.069 arbitrary unit
- fluorescence intensity (adhered rat macrophage) ([10]; 1 µM): 0.031 +0.037 arbitrary unit
- fluorescence intensity (adhered rat macrophage) ([10]; 10 µM): 0.012 +0.038 arbitrary unit
